Measurements taken from ChEMBL document CHEMBL3763136, “Synthesis and neuroprotective activity of dictyoquinazol A and analogues” (Bioorg Med Chem, 2016).
Active and inactive are the calls of the source. No cut-off for these calls is given here.

Assays:
SH-SY5Y [1] = assay: Neuroprotective activity against L-glutamate-induced excitotoxicity in human SH-SY5Y cells assessed as increase in cell viability after 20 hrs by MTT assay; format: functional, cell-based
SH-SY5Y [2] = assay: Neuroprotective activity against H2O2-induced oxidative stress in human SH-SY5Y cells assessed as increase in cell viability after 20 hrs by MTT assay; format: functional, cell-based
SH-SY5Y [3] = assay: Neuroprotective activity against staurosporine-induced apoptosis in human SH-SY5Y cells assessed as increase in cell viability after 20 hrs by MTT assay; format: functional, cell-based
SH-SY5Y [4] = assay: Cytotoxicity against human SH-SY5Y cells assessed as cell viability at 0.3 to 3 uM after 24 hrs by MTT assay; format: cell-based
SH-SY5Y [5] = assay: Neuroprotective activity against L-glutamate-induced excitotoxicity in human SH-SY5Y cells assessed as increase in cell viability at 0.3 uM after 20 hrs by MTT assay; format: functional
SH-SY5Y [6] = assay: Neuroprotective activity against staurosporine-induced apoptosis in human SH-SY5Y cells assessed as increase in cell viability at 0.3 uM after 20 hrs by MTT assay; format: functional
SH-SY5Y [7] = assay: Cytotoxicity against human SH-SY5Y cells assessed as cell viability up to 3 uM after 24 hrs by MTT assay; format: cell-based
SH-SY5Y [8] = assay: Cytotoxicity against human SH-SY5Y cells assessed as cell viability above 10 uM after 24 hrs by MTT assay; format: cell-based
SH-SY5Y [9] = assay: Neuroprotective activity against H2O2-induced oxidative stress in human SH-SY5Y cells assessed as increase in cell viability at 0.6 to 1.2 uM after 20 hrs by MTT assay; format: functional
SH-SY5Y [10] = assay: Neuroprotective activity against L-glutamate-induced excitotoxicity in human SH-SY5Y cells assessed as increase in cell viability at 0.6 uM after 20 hrs by MTT assay; format: functional

| Structure (SMILES) | Activity (SH-SY5Y [1]) | Activity (SH-SY5Y [2]) | Activity (SH-SY5Y [3]) | Activity (SH-SY5Y [4]) | %max (SH-SY5Y [5]) [%] | Activity (SH-SY5Y [6]) [%] | Activity (SH-SY5Y [7]) | Activity (SH-SY5Y [8]) | %max (SH-SY5Y [9]) [%] | Activity (SH-SY5Y [10]) [%] |
| --- | --- | --- | --- | --- | --- | --- | --- | --- | --- | --- |
| COc1ccc(-n2c(=S)[nH]c3ccc(OC)cc3c2=O)c(CO)c1 | Active | Active | inactive | Non-toxic |  |  |  |  |  |  |
| COc1ccc(-n2cnc3ccc(OC)cc3c2=O)c(CO)c1 [DICTYOQUINAZOLE A] |  |  |  |  | 10 | 41 | Non-toxic | Toxic | 22 |  |
| COc1ccc(-n2c(=O)[nH]c3ccc(OC)cc3c2=O)c(CO)c1 | Active | Active | Active | Non-toxic |  |  |  |  |  |  |
| COC(=O)c1cc(OC)ccc1-n1cnc2ccc(OC)cc2c1=O | Active | Active | Active | Non-toxic |  |  |  |  |  |  |
| COc1ccc(-n2cnc3ccc(OC)cc3c2=O)c(COC=O)c1 |  |  |  |  |  |  | Non-toxic | Toxic |  |  |
| COc1ccc(-n2cnc3ccc(OC)cc3c2=O)cc1 | Active | Active | Active | Non-toxic |  |  |  |  |  |  |
| O=c1c2ccccc2ncn1-c1ccccc1CO |  | inactive | Active |  |  |  | Non-toxic | Toxic |  | 35 |
| COc1ccc(-n2cnc3ccc(OC)cc3c2=O)c(CF)c1 | Active | inactive | Active |  |  |  | Non-toxic | Toxic |  |  |
